pEC50: −log10 of the molar value. Marks after values point to notes of the source that are not given here.
Experiments:
[1] = target: T1, LPA2 receptors from the mouse (Mus musculus, UniProt Q9JL06); experiment: Calcium-mobilization assay (FURA-2), mouse LPA2; assay type: cell-based
T1 construct: expressed in transfected cells
Procedure: (§1) We investigated structure-activity relationships across species, LPAR subtypes and between Rx100 and two known process impurities encountered in manufacture: Rx103 (‘E’ isomer) and Rx200 (oleyl phosphate and impurity, which can be an Rx100 degradant along with oleyl alcohol). Rx100, Rx103, Rx200 and native LPA were investigated at different human LPAR subtypes. In addition, the activity of these compounds was evaluated at LPA2 receptors from the rhesus, rat and mouse species. Human LPA1/2/3 subtypes were transfected into mouse embryonic fibroblasts (MEF) or rat hepatoma cells (RH7777)—both of which are normally non-responsive or null to LPA. Human LPA4 was transfected into Chinese hamster ovary (CHO) cells and LPA5 into the B103 neuroblastoma cell line. […] The B103 rat neuroblastoma cell line is endogenously nonresponsive to LPA but expresses heterologous LPA5 receptors well. […] LPAR activation elicits a G-protein-mediated transient rise in intracellular calcium level that is proportional to the concentration of LPA applied. The intracellular calcium level was quantified by the calcium-selective fluorescent indicator FURA-2 (e.g., increased intracellular calcium surge=increased fluorescence).

Control CHO = experiment: Calcium-mobilization assay, untransfected Control CHO cells; assay type: cell-based, Chinese hamster; conditions: Cricetulus griseus, CHO
Procedure: as §1

[2] = test system: C57BL/6 murine Animal Model of GI-ARS; experiment: Survival after partial body irradiation (tibial sparing), murine Animal Model of GI-ARS (Studies 4.1.4, 4.1.5, 4.1.8); assay type: in vivo, C57BL/6 mice; conditions: for Survival Day 10, Rx100 arm (survivors/animals) / Survival Day ≧30, Rx100 arm (survivors/animals) / Survival Advantage Day 10 / Survival Advantage Day ≧30: Murine (♀), start +24; for Survival Advantage Day 10 / Survival Advantage Day ≧30 / Survival advantage 0.3 mg/kg / Survival advantage 3 mg/kg / Survival advantage: vs vehicle; for Survival, 0.3 mg/kg / Survival, 3 mg/kg / Survival advantage 0.3 mg/kg / Survival advantage 3 mg/kg: Study 4.1.4, Phase 2 + 3; for Survival, 0.3 mg/kg / Survival, 3 mg/kg: q12 h × 6 from 24 h after PBI; for Survival advantage / Survival, Rx100 at 3 mg/kg/12 × 6: Study 4.1.8, Phase 1 + 2, female C57BL/6; for Survival advantage: 3 mg/kg/12 h × 6
Procedure: These Animal Model studies were all conducted using partial body irradiation (PBI) with tibial bone marrow sparing except the earliest study which was performed with Total Abdominal Irradiation (TAI). The male Rhesus macaque model was developed by MacVittie. The female inbred murine PBI GI-ARS Animal Model was developed by the inventors. […] Differences in radiation sensitivity by gender in rodent species are well appreciated. We are not aware of PBI GI-ARS models other than these that meet criteria required to conduct a prospective, blinded, controlled, randomized study of efficacy.
A synopsis from each of the completed three sequential efficacy studies in the C57BL/6 murine partial body irradiation model of GI-ARS is provided below. […] Study WBS 4.1.8 was a pilot study of the efficacy of Rx100 at the preferred dose and regimen. The latter two studies (4.1.5) and 4.1.8) were blinded, randomized and controlled. The former study was not blinded but was controlled and randomized (WBS 4.1.4).
Study was initiated on Feb. […] Experiments were started on Feb.
Phase 1 (n=32 per group per sex) was designed as an expanded pilot dose-ranging study (0.3, 1.0, 3.0, and 10 mg/kg) to select two Rx100 doses for additional testing in phases 2 and 3. Phases 2 and 3 (enrolled n=64 per group per gender) were conducted at the selected Rx100 doses (0.3 and 3.0 mg/kg) to ensure sufficient sample size to power an assessment of survival advantage. The latter study was conducted in two phases based on facility limitations (up to 120 animals can be handled readily in one radiation sequence). […] A higher radiation dose was used in Phases 2 and 3 and two intermediate doses selected empirically (0.3 and 3.0 mg/kg). The study was carried out to 30 days post irradiation in all phases. The primary endpoint in this study was survival at Day 10. The modified intent-to-treat primary study population was defined as those animals that survived anesthesia following irradiation. Survival advantage was calculated as the percent survival in the active arm minus the percent survival in the vehicle arm for males and females separately with pairwise comparison by Chi-Square as a test of significance without adjustment for multiple testing. Significance was declared at the 0.05 level (two-sided). […] See Kaplan-Meier FIG. 32.
The study was initiated on Apr. […] Experiments were started on Apr.
Under the study design, four radiation doses were selected for vehicle administration. […] The study was performed in female mice only. […] Animals were randomized but stratified by weight to assure equivalent weights in each arm. The study was conducted in two phases to assure adequate subject numbers based on limitations on the number of animals that can be processed per phase (120). The primary endpoint in this study was survival at Day 10 but the study was carried out to Day 30.

[3] = Rx Bio 415, 3 mg/kg (q12 × 6), 15.62-64 Gy
[4] = RxBio 414, 0.3 mg/kg (q12 × 6), 15.65-8 Gy
[5] = RxBio 414, 3 mg/kg (q12 × 6), 15.65-8 Gy
[6] = RxBio 418F, 3 mg/kg (q12 × 6), 15.55-67 Gy (pooled)
[7] = RxBio 418F, 3 mg/kg (q12 × 6), 15.55 Gy
[8] = RxBio 418F, 3 mg/kg (q12 × 6), 15.62 Gy
[9] = RxBio 418F, 3 mg/kg (q12 × 6), 15.67 Gy
[10] = Study 4.1.5, female, 3 mg/kg q12 h×6 starting 24 hours after PBI

T1 sequence (Q9JL06 whole entry): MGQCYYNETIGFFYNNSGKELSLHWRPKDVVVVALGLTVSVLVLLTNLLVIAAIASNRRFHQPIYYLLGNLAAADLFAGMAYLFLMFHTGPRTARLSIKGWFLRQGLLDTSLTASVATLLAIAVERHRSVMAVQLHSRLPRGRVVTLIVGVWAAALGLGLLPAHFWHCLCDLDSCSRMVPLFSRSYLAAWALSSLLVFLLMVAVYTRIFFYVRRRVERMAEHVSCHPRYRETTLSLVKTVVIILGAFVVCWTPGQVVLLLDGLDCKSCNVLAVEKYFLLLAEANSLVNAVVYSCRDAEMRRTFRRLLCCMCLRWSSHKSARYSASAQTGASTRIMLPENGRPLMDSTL

Q: What does the source list for `CCCCCCCC/C=C\CCCCCCCCOP(O)(O)=S` [Rx100, (Z)—O-octadec-9-en-1-yl O,O-dihydrogen phosphorothioate]?
A: pEC50 [1]: 6.78; Emax ([1]; read-out: Emax (% of LPA)): 100%; pEC50 (Control CHO): < 5.30; Emax (Control CHO; read-out: Emax (% of LPA)): 20%; Survival Day 10, Rx100 arm (survivors/animals) [2, 3]: 18/32; Survival Day ≧30, Rx100 arm (survivors/animals) [2, 3]: 9/32; Survival Advantage Day 10 [2, 3]: 50%; Survival Advantage Day ≧30 [2, 3]: 28%; Survival Day 10, Rx100 arm (survivors/animals) [2, 4]: 29/60; Survival Day ≧30, Rx100 arm (survivors/animals) [2, 4]: 20/60; Survival Advantage Day 10 [2, 4]: 5%; Survival Advantage Day ≧30 [2, 4]: 23%; Survival Day 10, Rx100 arm (survivors/animals) [2, 5]: 41/64; Survival Day ≧30, Rx100 arm (survivors/animals) [2, 5]: 23/64; Survival Advantage Day 10 [2, 5]: 23%; Survival Advantage Day ≧30 [2, 5]: 26%; Survival Day 10, Rx100 arm (survivors/animals) [2, 6]: 52/105; Survival Day ≧30, Rx100 arm (survivors/animals) [2, 6]: 42/105; Survival Advantage Day 10 [2, 6]: 32%; Survival Advantage Day ≧30 [2, 6]: 25%; Survival Day 10, Rx100 arm (survivors/animals) [2, 7]: 16/34; Survival Day ≧30, Rx100 arm (survivors/animals) [2, 7]: 13/34; Survival Advantage Day 10 [2, 7]: 25%; Survival Advantage Day ≧30 [2, 7]: 22%; Survival Day 10, Rx100 arm (survivors/animals) [2, 8]: 21/36; Survival Day ≧30, Rx100 arm (survivors/animals) [2, 8]: 17/36; Survival Advantage Day 10 [2, 8]: 47%; Survival Advantage Day ≧30 [2, 8]: 39%; Survival Day 10, Rx100 arm (survivors/animals) [2, 9]: 15/35; Survival Day ≧30, Rx100 arm (survivors/animals) [2, 9]: 12/35; Survival Advantage Day 10 [2, 9]: 23%; Survival Advantage Day ≧30 [2, 9]: 14%; Survival, 0.3 mg/kg ([2]; Females, Day 10): 48.3% (29/60); Survival, 3 mg/kg ([2]; Females, Day 10): 64.1% (41/64); Survival advantage 0.3 mg/kg ([2]; Females, Day 10): 7.3%; Survival advantage 3 mg/kg ([2]; Females, Day 10): 23.1%*; Survival, 0.3 mg/kg ([2]; Females, Day 30): 33.3% (20/60); Survival, 3 mg/kg ([2]; Females, Day 30): 35.9% (23/41); Survival advantage 0.3 mg/kg ([2]; Females, Day 30): 23.5%*; Survival advantage 3 mg/kg ([2]; Females, Day 30): 26.1%*; Survival, 0.3 mg/kg ([2]; Males, Day 10): 38.2% (21/55); Survival, 3 mg/kg ([2]; Males, Day 10): 41.4% (24/58); Survival advantage 0.3 mg/kg ([2]; Males, Day 10): −2.2%; Survival advantage 3 mg/kg ([2]; Males, Day 10): 1.0%; Survival, 0.3 mg/kg ([2]; Males, Day 30): 12.7% (7/55); Survival, 3 mg/kg ([2]; Males, Day 30): 17.2% (10/58); Survival advantage 0.3 mg/kg ([2]; Males, Day 30): −17.1%; Survival advantage 3 mg/kg ([2]; Males, Day 30): 12.6%; increase in survival at Day 10 ([2]; Study 4.1.4, female, 0.3 mg/kg/12 h/6, not statistically significant): 7.3%; survival advantage at Day 10 ([2]; Study 4.1.4, female, 3 mg/kg/12 h×6 starting 24 hours after PBI, statistically significant): 23.1%; survival benefit by Day 30 ([2]; Study 4.1.4, female, both 0.3 mg/kg and 3 mg/kg): a benefit was seen; survival benefit in male animals ([2]; Study 4.1.4, male): no survival benefit; survival advantage at Day 10 [2, 10]: 50%; survival advantage through Day 30 [2, 10]: 28%; efficacy with delayed start of dosing ([2]; Study 4.1.5, female, dosing started ≧48 hours after radiation): Efficacy was not seen; efficacy and toxicity in male mice ([2]; Study 4.1.5, male, 3 mg/kg q12 h×6): neither efficacy nor toxicity was seen; Survival advantage ([2]; 15.55 Gy, Day 10): 24.9%*; Survival advantage ([2]; 15.55 Gy, Day 30): 21.5%*; Survival advantage ([2]; 15.62 Gy, Day 10): 47.2%*; Survival advantage ([2]; 15.62 Gy, Day 30): 38.9%*; Survival advantage ([2]; 15.67 Gy, Day 10): 22.9%*; Survival advantage ([2]; 15.67 Gy, Day 30): 14.3%; Survival, Rx100 at 3 mg/kg/12 × 6 ([2]; 15.55 Gy, Day 10): 47.1%; Survival, Rx100 at 3 mg/kg/12 × 6 ([2]; 15.55 Gy, Day 30): 38.2%; Survival, Rx100 at 3 mg/kg/12 × 6 ([2]; 15.62 Gy, Day 10): 58.3; Survival, Rx100 at 3 mg/kg/12 × 6 ([2]; 15.62 Gy, Day 30): 47.2%; Survival, Rx100 at 3 mg/kg/12 × 6 ([2]; 15.67 Gy, Day 10): 42.9%; Survival, Rx100 at 3 mg/kg/12 × 6 ([2]; 15.67 Gy, Day 30): 34.3%; survival advantage at Day 10 and Day 30 ([2]; Study 4.1.8, female, 3 mg/kg q12 h×6 starting at 24 hours after PBI): clinically and statistically significant survival advantage; Day 10 survival ([2]; females, treatment administered starting at 24 hours after radiation): 56.3%; survival ([2]; male mice, comparable group): 72%
